According to patent publication US10881105B2, “Method for breaking dormancy in deciduous trees” (Tapazol Chemical Works Ltd., priority 2014, dated 2021):

Tested on: Black Gem (P. nigra) plums
Assay: Bud break assessment after spraying, dormancy release in black gem plums (Example 1)
Type: in vivo
Conditions: above 15 grams per liter oil; data not shown
Protocol: On the day in which spraying was initiated the number of accumulated chilling units was 14 (being equivalent of 200 hours of chilling). The trees were at a stage where 10% of the bulbs were swollen. Three branches facing different directions were selected in each tree. The upper 20 cm in each branch were examined Each branch contained approximately 13 buds. Each bud was evaluated for bud progression on three separate occasions and bud progression percentages were normalized across the examined branches [table] [table]

SMILES: O=[N+]([O-])c1cc(C(F)(F)F)c(Cl)c([N+](=O)[O-])c1Nc1ncc(C(F)(F)F)cc1Cl [fluazinam, 3-chloro-N-(3-chloro-5-trifluoromethyl-2-pyridyl)-α,α,α-trifluoro-2,6-dinitro-p-toluidine]
- efficacy of the composition versus concentration of Fluazinam in oil (regression): the efficacy of the composition decreased
